Measurements reported in patent US6673608B1, “Somatic embryogenic regeneration of Acacia mangium” (Institute of Molecular Agrobiology, priority 2002, dated 2004).

How the values were obtained:
globular somatic embryos = experiment: Somatic embryo maturation (two-step maturation procedure); assay type: cell-based, Acacia mangium; conditions: ½ MS maturation media
Description: (§1) All media were adjusted to pH 5.8 after autoclaving at 121° C. for 25 min. Plant growth regulators tested in experiments were added into media after autoclaving but other additional substances were added into media before autoclaving. All cultures were maintained under the warm white fluorescent lights at a range of irradiance of 23.41-26.01 μmol.s^−1m^−2, with 16 h photoperiod and at 28° C.
Globular embryos (FIGS. 1B-C) induced from induction medium containing IAA 0.25 mg/l and TDZ 2.0 mg/l (AM-304) were cultured on ½ MS basal medium supplemented with 0-5.0 mg/l of GA3, 30-50 g/l of sucrose, Vc 100 mg/l, Asn 150 mg/l, CH 100 mg/l, Gln 150 mg/l, Pro 150 mg/l, phytagel 0.35% (g/l), and activated charcoal 0.1% for thirty days. Somatic embryos were then transferred onto maturation medium AM-425 and cultured for 40 days. Cotyledon somatic embryos (mature somatic embryos) were then transferred onto the medium AM-424 for germination. Each experiment was repeated twice with a total of 250 globular somatic embryos for each medium combination. Seedlings were transferred to ½ MS basal medium containing sucrose 20 g/l as well as phytagel 0.35% and cultured for two months before being transferred to pot soil consisting of peat soil: sand (3:1). […]

[1] = system: A. mangium immature embryo axes; experiment: Embryogenic callus induction from immature embryo axes; assay type: cell-based, Acacia mangium; conditions: immature embryo axes on MS basal medium
Description: One and half months old immature green pods were collected from twenty-meter high adult A. mangium Willd. trees at Science Park Drive of Singapore. Green seeds were gently isolated from pods and washed with sterile double deionized water (ddH2O) 4-5 times. After green seeds were surface sterilised with 30% market clorox bleach (NaClO) for 5 minutes and washed with sterile ddH2O 5 times, the seeds were sterilised again with 0.1% HgCl2 for 6 minutes and washed with sterile ddH2O 5 times. Seed coats were removed with sterilised forceps and embryos were isolated. Embryo axes (EA) (FIG. 1A) were gently separated with sterile forceps and used as explants for embryogenic callus induction.
as §1, with “28° C. […]” for “28° C.”

SMILES	development of globular somatic embryos to torpedo and cotyledon stage (result in words) (globular somatic embryos)	embryogenic callus induction / somatic embryogenesis (result in words) [1]
C=C1C[C@]23C[C@@]1(O)CC[C@H]2[C@@]12C=C[C@H](O)[C@@](C)(C(=O)O1)[C@H]2[C@@H]3C(=O)O [GA3, Gibberellic Acid]	promoted somatic embryo maturation	
O=C(Nc1ccccc1)Nc1cnns1 [TDZ, 1-Phenyl-3-(1,2,3-thiadiazol-5-yl)Urea]		effective to induce embryogenic callus
